One series relates to mouse liver. The series can be described thus: In vivo 13C-MR spectroscopy with surface coil over the liver in a mouse. Set-up: species or system C57Bl/6 mouse. Particulars: 175 μl of about 50 mM imaging medium injected over 6 s; liver region, 2.4 T, 10 spectra, repetition time 5 s. Here is the method:
175 μl of an imaging medium comprising hyperpolarised sodium ^13C1-α-ketoisocaproate which was prepared as described in Example 1 was injected into a C57Bl/6 mouse over a time period of 6 s. The sodium ^13C1-α-ketoisocaproate concentration in said imaging medium was about 50 mM. A 12 mm surface coil (tuned for carbon) was positioned over the mouse to cover the liver region and signals of ^13C-α-ketoisocaproate and ^13C-leucine were detected by ^13C-MR spectroscopy which was carried out in a 2.4 T Bruker spectrometer to generate a metabolic profile. A total of 10 ^13C-spectra were acquired with a repetition time of 5 s and 30 degree RF pulses. In this Example, the ^13C-leucine signal is approximately 1% of the ^13C-α-ketoisocaproate signal.

The subject of series [1] is subcutaneous mouse lymphoma (EL-4). Type of series: in vivo. As for the experimental part:
EL-4 cells were injected into a C57Bl/6 mouse to generate a subcutaneous mouse lymphoma. 175 μl of an imaging medium comprising hyperpolarised sodium ^13C1-α-ketoisocaproate which was prepared as described in Example 2 was injected into the mouse over a time period of 6 s. The sodium ^13Ci-α-ketoisocaproate concentration in said imaging medium was about 50 mM. A 20 mm surface coil (tuned for carbon) was positioned over the subcutaneous tumour and signals of ^13C-α-ketoisocaproate and ^13C-leucine were detected by ^13C-MR spectroscopy which was carried out using a 2.4 T Bruker spectrometer to generate a metabolic profile of the tumour and the surrounding healthy tissue. A ^13C-chemical shift image was acquired with the following parameters: FOV 35×35 mm^2×10 mm, matrix size 16×16, 10 degree RF pulse, TR=35 ms. Total acquisition time was 11 seconds (die to triggering on breathing) and the chemical shift imaging started 15 seconds after the start of the injection of the imaging medium. Omniscan™ (GE Healthcare)—enhanced proton imaging was performed to confirm the tumour position and perfusion.

A short description of series [2]: Tolerability in the animal models used. Type of series: in vivo. The conditions noted are these: animal models of the Examples (mouse, rat). Here is the method:
In another preferred embodiment, the imaging medium comprising hyperpolarised ^13C-α-ketoisocaproate is administered repeatedly, thus allowing dynamic studies.

Setting [3] is: 175 μl of about 50 mM imaging medium, chemical shift imaging started 15 s after start of injection, 2.4 T.

For the molecule `CC(C)CC(=O)[13C](=O)[O-].[Na+]` [sodium ^13C1-α-ketoisocaproate], the “13C-leucine signal as share of the 13C-α-ketoisocaproate signal” value in the series on mouse liver is “approximately 1%”. Further, in series [1] (setting [3]), the 13C-leucine distribution entry is listed as “confined to the tumour area” and the 13C-α-ketoisocaproate signal distribution result is “the highest in the large blood vessels”. In series [1] (confirmed by Omniscan-enhanced proton image), the “ratio image (13C-leucine to 13C-α-ketoisocaproate)” value is reported as “defines the tumour area”.
For the molecule “^13C-α-ketoisocaproate [hyperpolarised ^13C-α-ketoisocaproate]”, the tolerability entry in series [2] was “well tolerated”.

Values taken from patent US20110038804A1, “MR IMAGING AGENT, IMAGING MEDIUM AND METHODS OF IMAGING WHEREIN SUCH AN IMAGING MEDIUM IS USED” (priority 2007, published 2011).
